Measured values reported in patent publication US20180003613A1, “Phenotypic High-Content Assay to Evaluate Drugs” (Texas Tech University System, priority 2015, published 2018).
Entries after “also recorded” stand apart in the source; their conditions may differ.

Tests used:
[1] = test system: AGT-170 cells; experiment: Phenotypic cell based AGT/peroxisome co-localization high content assay (Pearson's colocalization coefficient), AGT-170 cells; set-up: species or system Chinese hamster; details: for % rescue (normalized AGT co-localization): pilot screen, 1536 well, FIG. 3, normalized to AGT-mi (high) and AGT-170 (low) DMSO controls, 4 μM final stated for pilot screen
Protocol: After an overnight incubation time at 37 C, 95% relative humidity and 5% CO2, cells were treated with DMSO or glycerol at different concentrations. After 2 days, cells were fixed with 4% paraformaldehyde, washed 3 times with PBS and permeabilized for 10-30 min with 0.1% Triton X-100 in PBS (PBS-TX). Cells were then stained with a guinea pig anti-AGT “A1” antibody (1:10,000) and a rabbit anti-PMP70 antibody (Ab3421, 1:500) in PBS-TX containing 0.5% goat serum. After 3 PBS washes, anti-rabbit AF488 and anti-guinea pig AF546 secondary antibodies (both at 1:10,000), as well as Hoeschst at 10 ug/mL were added to each well. Images were acquired with a 20× objective on the CellInsight (Cellomics). Puncta labeled with the anti-PMP70 antibody (labeling peroxisomes) and the anti-AGT antibody are detected in the green and red channels, respectively. Colocalization of the two populations of puncta was determined via calculation of the Pearson Colocalization Coefficient using Cellomics' “Colocalization” BioApplication. Here, miAGT cells are non-mutant AGT expressing CHO cells while the mutant AGT cells are references as 170s. The concentration of glycerol used in […] is listed in both the bar graph and the scatterplot. 4 replicates per condition were done and Z′ and S:B are calculated from the untreated AGT 170 cells versus the miAGT cells.
384-well plate assay protocol. Briefly, AGT-170 cells (and AGTmi cells that serve as a positive control) were seeded in black, square, IQ™ 100 μ384-well plates (Aurora, Brooks, Chelmsford, Mass.) at 500 cells/wells using a Flying Reagent Dispenser (FRD, Beckman Coulter, Brea, Calif.). After an overnight incubation at 37° C., 95% relative humidity (RH) and 5% CO2, cells were treated with 100 nL test compounds or DMSO for the positive and negative wells with a pintool transfer unit (GNF). Plates were then placed in an incubator for three days at 37° C., 95% RH and 5% CO2, immunostained and acquired on a high content imager as described below.
Immunostaining. Following treatment and incubation as described above, cells were fixed by the addition of 2× fixation solution (8% paraformaldehyde-PFA) using a FRD. Plates were then washed 3 times with PBS on the Squirt microplate washer using a 12° nozzle tilt and 15 PSI pressure according to the user's manual for washing normal binding cells in 384-well plate format (Brook, Chelmsford, Mass.). Cells were then permeabilized by dispensing a solution of 0.1% Triton X-100 in PBS (PBS-TX) and incubated for 10-30 minutes. Next, cells were stained with a guinea pig anti-AGT “A1” antibody (Danpure's Lab, London, UK; 1:10,000) and a rabbit anti-PMP70 antibody (Abcam, Cambridge, Mass.; 1:500) in PBS-TX containing 0.5% goat serum. After 3 PBS washes, anti-rabbit AF488 and anti-guinea pig AF546 secondary antibodies (Molecular Probes, Eugene, Oreg.; both at 1:10,000), as well as Hoechst at 10 μg/mL were added to each well. Thirty minutes later, plates were washed 3 times, filled with 50 μL/well of PBS and sealed with black tape.
Image acquisition and analysis. Plates were read and images acquired with the CellInsight high content reader (Thermo Fisher Scientific, Pittsburgh, Pa.) using a 20× objective. A detailed and illustrated description of the image acquisition and analysis is presented FIGS. 1A to 1H. A maximum of 9 fields of view per well were acquired, yielding an average of ≈700 cells detected. The nuclear stain channel (Hoechst, 386 nm, 9.8 milliseconds exposure time) was used to focus on the cell layer. Puncta labeled with the anti-PMP70 antibody (labeling peroxisomes) and the anti-AGT antibody were acquired in the green (485 nm, 40 milliseconds exposure) and red (549 nm, 15 milliseconds exposure) channels, respectively. Nuclei were detected using the fixed threshold method with an intensity threshold of 300. Next, a cytoplasmic region of interest was created around each nucleus by creating a ring with a distance of 1 pixel from the nucleus and a width of 8 pixels. […]

[2] = test system: CHO cells; experiment: Cytotoxicity / cell viability seen in the high content assay (HCS images); type: cell-based, Chinese hamster
Protocol: In order to assess the ability to induce and detect an increase in the Pearson's colocalization coefficient, both AGTmi and AGT-170 cells were treated with glycerol, which is a viscous polyol compound known to enhance the stability of proteins in solution. This co-solvent shifts the native protein to more compact states and inhibits protein-protein aggregation while proteins are being refolded during biological synthesis. […] Concentrations of glycerol higher than 5% affected cell viability and prevented accurate determination of the Pearson's colocalization coefficient; for these reasons, they were avoided. To probe the robustness of the assay, the glycerol titration assay was repeated on two separate plates. […] The Z′-factor, a statistical measurement indicative of HTS-readiness, was calculated between the AGT-170 cells in absence and presence of 5% glycerol and found to be 0.58, and at 0.81 between untreated AGT-170 and AGTmi cells.
Fresh powders, solvated in DMSO, were obtained and reformatted as ten point three fold serial dilutions and proceeded to test them in the same assay as described above. […] All data was imported into the Scripps database, assessed for quality control in terms of Z′, S:B and CV (i.e., quality controlled), and curves were fitted using a 4-parameter algorithm without constraining the top or bottom asymptote. […]

[3] = test system: AGTmi cells; experiment: AGT/peroxisome co-localization high content assay, AGTmi cells, glycerol treatment; type: cell-based, Chinese hamster
Protocol: After an overnight incubation time at 37 C, 95% relative humidity and 5% CO2, cells were treated with DMSO or glycerol at different concentrations. After 2 days, cells were fixed with 4% paraformaldehyde, washed 3 times with PBS and permeabilized for 10-30 min with 0.1% Triton X-100 in PBS (PBS-TX). Cells were then stained with a guinea pig anti-AGT “A1” antibody (1:10,000) and a rabbit anti-PMP70 antibody (Ab3421, 1:500) in PBS-TX containing 0.5% goat serum. After 3 PBS washes, anti-rabbit AF488 and anti-guinea pig AF546 secondary antibodies (both at 1:10,000), as well as Hoeschst at 10 ug/mL were added to each well. Images were acquired with a 20× objective on the CellInsight (Cellomics). Puncta labeled with the anti-PMP70 antibody (labeling peroxisomes) and the anti-AGT antibody are detected in the green and red channels, respectively. Colocalization of the two populations of puncta was determined via calculation of the Pearson Colocalization Coefficient using Cellomics' “Colocalization” BioApplication. […] 4 replicates per condition were done and Z′ and S:B are calculated from the untreated AGT 170 cells versus the miAGT cells.
Image acquisition and analysis. Plates were read and images acquired with the CellInsight high content reader (Thermo Fisher Scientific, Pittsburgh, Pa.) using a 20× objective. […]

[4] = fresh powders, ten point three fold serial dilutions, 25 uM highest concentration, FIG. 5

## 26-Deoxymonensin B
[1]
  % rescue (normalized AGT co-localization): 73%

## CC(NCCC(c1ccccc1)c1ccccc1)c1ccccc1 (stereo not shown) [Fendiline]
[1]; [4]
  Activity in concentration response curves: inactive; also recorded: did not show significant activity
[2]; concentration response test, FIG. 5 and FIG. 6
  Toxicity by eye when observing HCS images: appears toxic at higher concentrations; also recorded: appeared toxic at 10 uM

## CC[C@@]1([C@@H]2O[C@@H]([C@H]3O[C@@](O)(CO)[C@H](C)C[C@@H]3C)C[C@@H]2C)CC[C@H]([C@]2(C)CC[C@]3(C[C@H](O)[C@@H](C)[C@@H]([C@@H](C)[C@@H](OC)[C@H](C)C(=O)O)O3)O2)O1 [Monensin]
[1]; [4]
  EC50 potency from concentration response curves: low micromolar potency
[1]
  % rescue (normalized AGT co-localization): 84%

## OCC(O)CO [glycerol]
[1]; 1536-well plates, 2 days treatment, FIG. 1
  Effect on AGT mutant (colocalization with peroxisomes): stabilizing the AGT mutant
[1]; AGT-170 cells, glycerol treatment
  fold increase of Pearson's colocalization coefficient: 1.91 fold
[1]; AGT-170 cells, increasing concentrations of glycerol, n=4, untreated 0.41±0.01
  Pearson's colocalization coefficient after glycerol treatment: 0.80±0.04
[3]
  fold increase of Pearson's values: ~1.10 fold
[2]; glycerol titration, prevented accurate determination of the Pearson's coefficient
  Concentration that affected cell viability: higher than 5%
